Data as given in PMC9919957 (2023).

Row | SMILES | melting point [°C]
1 | O=C1CC(c2ccc(O)cc2)Oc2cc(OC3OC(CO)C(O)C3O)cc(O)c21 (centres unmarked) | 229 to 230
2 | NCC[C@H]1C[C@H](O)C(=O)O1 (hydrate or solvate) | 347 to 350
